Reference: publication PMC11401861, “Assessment of the in vitro anti-diabetic activity with molecular dynamic simulations of limonoids isolated from Adalia lemon peels” (Scientific Reports, 2024)
≈ marks a conversion by molar mass, not a printed value.

Key:
α-amylase [1] = experiment: α-Amylase enzyme inhibition assay; assay type: biochemical; details: for IC50 against α-amylase: Fig. 2b
Protocol: (§1) All in vitro biological activities of the limonoids-rich extract and the isolated compounds were assayed in triplicate at three different concentrations (50, 100, and 200 µg/mL).
(§2) The IC50 of each tested sample was determined by plotting a curve using a series of sample concentrations against the percent of enzyme inhibition.

α-glucosidase [2] = experiment: α-Glucosidase enzyme inhibition assay; assay type: biochemical; details: for IC50 against α-glucosidase: Fig. 2b
Protocol: as §1, §2

α-amylase [3] = experiment: Native electrophoretic α-amylase isoenzyme pattern (PAGE); assay type: biochemical; details: standard enzyme treated with 100 µg/mL
Protocol: (§3) The relative mobility (Rf), band quantity (Qty) and band percent (B%) of the electrophoretically detected isoenzyme types on the PAGE plate were determined using the Quantity One software program (version 4.6.2). The equation proposed by Nei and Li[39] was used to calculate the percentages of similarity index (SI%) and physiological difference (Diff%).

α-glucosidase [4] = experiment: SDS-PAGE electrophoretic α-glucosidase pattern; assay type: biochemical; details: 100 µg/mL
Protocol: as §3

[5] = Total antioxidant capacity (TAC), method of Prieto et al.
Protocol: as §1
The method proposed by Prieto et al.[30] was used to determine the total antioxidant capacity (TAC) expressed as mg […] equivalent per gram weight, using ascorbic acid at the same concentrations as a standard.

[6] = Iron reducing power (IRP), method of Oyaizu
[7] = DPPH radical scavenging activity; details: for IC50 against DPPH radical: Fig. 2a
Protocol: as §1
The 1,1-Diphenyl-2-picryl-hydrazyl (DPPH) radical scavenging activity was evaluated using the method described by Rahman et al.[32]. Ascorbic acid was used as a positive control at the same concentrations. The inhibition percentage of the DPPH free radical was calculated. The median inhibitory concentration (IC50) of each tested sample was determined by plotting a curve using a series of sample concentrations against the percentage of DPPH inhibition.

[8] = ABTS radical scavenging assay; details: for IC50 against ABTS radical: Fig. 2a
Protocol: as §1
(§4) The ABTS scavenging capacities of the samples were compared with that of ascorbic acid. The percent inhibition of the ABTS radical was calculated. The IC50 of each tested sample was determined by plotting a curve using a series of sample concentrations against the percent of ABTS inhibition.

[9] = Nitric oxide (NO) radical scavenging activity (Griess Illosvory reagent); details: for IC50 against NO radical: Fig. 2a
Protocol: as §1
as §4, with “The nitric oxide (NO) radical scavenging activity was estimated by the reaction with Griess Illosvory reagent based on the method proposed by Chakraborthy[34]. The NO” for “The ABTS”, “the NO” for “the ABTS”, “of NO” for “of ABTS”

SMILES	α-Amylase Inhibition (%) (α-amylase [1]; sample concentration 50 µg/mL)	α-Amylase Inhibition (%) (α-amylase [1]; sample concentration 100 µg/mL)	α-Amylase Inhibition (%) (α-amylase [1]; sample concentration 200 µg/mL)	α-Glucosidase Inhibition (%) (α-glucosidase [2]; sample concentration 50 µg/mL)	α-Glucosidase Inhibition (%) (α-glucosidase [2]; sample concentration 100 µg/mL)	α-Glucosidase Inhibition (%) (α-glucosidase [2]; sample concentration 200 µg/mL)	Change in electrophoretic α-amylase isoenzyme pattern (α-amylase [3])	TAC ([5]; sample concentration 50 µg/mL) [mg gallic acid/g]	TAC ([5]; sample concentration 100 µg/mL) [mg gallic acid/g]	TAC ([5]; sample concentration 200 µg/mL) [mg gallic acid/g]	IRP ([6]; sample concentration 50 µg/mL) [µg/mL]	IRP ([6]; sample concentration 100 µg/mL) [µg/mL]	IRP ([6]; sample concentration 200 µg/mL) [µg/mL]	DPPH Inhibition (%) ([7]; sample concentration 50 µg/mL)	DPPH Inhibition (%) ([7]; sample concentration 100 µg/mL)	DPPH Inhibition (%) ([7]; sample concentration 200 µg/mL)	ABTS Inhibition (%) ([8]; sample concentration 50 µg/mL)	ABTS Inhibition (%) ([8]; sample concentration 100 µg/mL)	ABTS Inhibition (%) ([8]; sample concentration 200 µg/mL)	NO Inhibition (%) ([9]; sample concentration 50 µg/mL)	other results
C[C@H]1O[C@H](O[C@H]2[C@H](O)[C@@H](O)[C@@H](O[C@H]3[C@H](O)[C@@H](O)C(O)O[C@@H]3CO)O[C@@H]2CO)[C@H](O)[C@@H](O)[C@@H]1N[C@H]1C=C(CO)[C@@H](O)[C@H](O)[C@H]1O (some centres unmarked) [Acarbose, acarbose, reference compound]	21.84 ± 0.08	37.12 ± 0.13	66.07 ± 0.23	17.69 ± 0.08	29.73 ± 0.13	52.92 ± 0.23	complete denaturation	–	–	–	–	–	–	–	–	–	–	–	–	–	Change in electrophoretic α-glucosidase pattern (α-glucosidase [4]): complete denaturation
O=C1O[C@H]([C@@H](O)CO)C(O)=C1O [Ascorbic Acid, ascorbic acid, reference compound]	–	–	–	–	–	–	–	30.09 ± 0.08	53.56 ± 0.14	95.34 ± 0.25	23.95 ± 0.07	42.64 ± 0.13	75.90 ± 0.23	26.17 ± 0.07	45.43 ± 0.11	80.87 ± 0.20	24.94 ± 0.08	42.64 ± 0.13	75.90 ± 0.23	21.02 ± 0.07	IC50 against DPPH radical [7]: 4.74 ± 0.02 µg/mL (≈ 26.9 µM); IC50 against ABTS radical [8]: 4.17 ± 0.02 µg/mL (≈ 23.7 µM); IC50 against NO radical [9]: 5.17 ± 0.03 µg/mL (≈ 29.4 µM); NO Inhibition (%) ([9]; sample concentration 100 µg/mL): 36.27 ± 0.11%; NO Inhibition (%) ([9]; sample concentration 200 µg/mL): 64.55 ± 0.20%
CC1(C)O[C@H]2CC(=O)OC[C@]23[C@H]2CC[C@@]4(C)[C@H](c5ccoc5)OC(=O)[C@H]5O[C@]54[C@]2(C)C(=O)C[C@@H]13 [Cpd1, limonin]	4.52 ± 0.03	8.05 ± 0.04	14.32 ± 0.08	1.37 ± 0.03	2.44 ± 0.04	4.34 ± 0.08	no qualitative or quantitative variations	12.77 ± 0.03	22.73 ± 0.04	40.46 ± 0.08	7.62 ± 0.03	13.56 ± 0.04	24.14 ± 0.08	11.10 ± 0.02	19.77 ± 0.04	35.18 ± 0.07	7.62 ± 0.03	13.56 ± 0.04	24.14 ± 0.08	5.95 ± 0.02	NO Inhibition (%) ([9]; sample concentration 100 µg/mL): 10.60 ± 0.04%; NO Inhibition (%) ([9]; sample concentration 200 µg/mL): 18.87 ± 0.07%; Diff% (physiological difference) of electrophoretic α-amylase pattern from the standard enzyme (α-amylase [3]): 0.00%; SI% (similarity index) of electrophoretic α-amylase pattern to the standard enzyme (α-amylase [3]): 100.00%; Diff% (decrease in the quantity of the identified α-glucosidase band) (α-glucosidase [4]): 3.83%; Qty (band quantity) of the α-glucosidase band (α-glucosidase [4]): 17.95
CC(=O)O[C@H]1CC(=O)OC(C)(C)[C@@H]2CC(=O)[C@]3(C)[C@H](CC[C@@]4(C)[C@H](c5ccoc5)OC(=O)[C@H]5O[C@]543)[C@@]12C [Cpd3, nomilin]	4.65 ± 0.03	8.27 ± 0.05	14.73 ± 0.08	1.50 ± 0.03	2.67 ± 0.05	4.75 ± 0.08	no qualitative or quantitative variations	12.90 ± 0.03	22.96 ± 0.05	40.87 ± 0.08	7.75 ± 0.03	13.79 ± 0.05	24.55 ± 0.08	11.22 ± 0.02	19.96 ± 0.04	35.53 ± 0.07	7.75 ± 0.03	13.79 ± 0.05	24.55 ± 0.08	6.07 ± 0.02	NO Inhibition (%) ([9]; sample concentration 100 µg/mL): 10.80 ± 0.04%; NO Inhibition (%) ([9]; sample concentration 200 µg/mL): 19.22 ± 0.07%; Diff% (physiological difference) of electrophoretic α-amylase pattern from the standard enzyme (α-amylase [3]): 0.00%; SI% (similarity index) of electrophoretic α-amylase pattern to the standard enzyme (α-amylase [3]): 100.00%; Diff% (decrease in the quantity of the identified α-glucosidase band) (α-glucosidase [4]): 7.51%; Qty (band quantity) of the α-glucosidase band (α-glucosidase [4]): 17.26
CC1(C)OC(=O)C=C[C@]2(C)[C@H]3CC[C@@](C)([C@@H](O[C@@H]4O[C@H](CO)[C@@H](O)[C@H](O)[C@H]4O)c4ccoc4)[C@@]4(O[C@@H]4C(=O)O)[C@]3(C)C(=O)C[C@@H]12 [Cpd4, obacunone 17-O-β-D-glucopyranoside]	18.93 ± 0.07	33.69 ± 0.13	59.96 ± 0.23	14.78 ± 0.07	26.30 ± 0.13	46.81 ± 0.23	severe abnormalities	27.18 ± 0.07	48.37 ± 0.13	86.10 ± 0.23	22.03 ± 0.07	39.20 ± 0.13	69.78 ± 0.23	23.63 ± 0.06	42.06 ± 0.11	74.87 ± 0.20	22.03 ± 0.07	39.20 ± 0.13	69.78 ± 0.23	18.48 ± 0.06	IC50 against DPPH radical [7]: 5.12 ± 0.02 µg/mL (≈ 8.07 µM); IC50 against ABTS radical [8]: 4.53 ± 0.02 µg/mL (≈ 7.14 µM); IC50 against NO radical [9]: 5.70 ± 0.03 µg/mL (≈ 8.98 µM); NO Inhibition (%) ([9]; sample concentration 100 µg/mL): 32.90 ± 0.11%; NO Inhibition (%) ([9]; sample concentration 200 µg/mL): 58.55 ± 0.20%; IC50 against α-amylase (α-amylase [1]): 3.61 ± 0.02 µg/mL (≈ 5.69 µM); IC50 against α-glucosidase (α-glucosidase [2]): 2.46 ± 0.02 µg/mL (≈ 3.88 µM); Diff% (physiological difference) of electrophoretic α-amylase pattern from the standard enzyme (α-amylase [3]): 100.00%; SI% (similarity index) of electrophoretic α-amylase pattern to the standard enzyme (α-amylase [3]): 0.00%; Diff% (decrease in the quantity of the identified α-glucosidase band) (α-glucosidase [4]): 64.41%; Qty (band quantity) of the α-glucosidase band (α-glucosidase [4]): 6.64
CC1(C)OC2CC(=O)OCC23C1CC(=O)C1(C)C3CC[C@@](C)([C@@H](O[C@@H]2O[C@H](CO)[C@@H](O)[C@H](O)[C@H]2O)c2ccoc2)C12OC2C(=O)O (stereo partly drawn) [Cpd5, limonin 17-O-β-D-glucopyranoside]	19.20 ± 0.07	34.17 ± 0.13	60.82 ± 0.23	15.05 ± 0.07	26.78 ± 0.13	47.67 ± 0.23	severe abnormalities	27.45 ± 0.07	48.86 ± 0.13	86.96 ± 0.23	22.30 ± 0.07	39.69 ± 0.13	70.65 ± 0.23	23.87 ± 0.06	42.48 ± 0.11	75.62 ± 0.20	22.30 ± 0.07	39.69 ± 0.13	70.65 ± 0.23	18.72 ± 0.06	IC50 against DPPH radical [7]: 5.07 ± 0.02 µg/mL (≈ 7.79 µM); IC50 against ABTS radical [8]: 4.48 ± 0.02 µg/mL (≈ 6.89 µM); IC50 against NO radical [9]: 5.62 ± 0.03 µg/mL (≈ 8.64 µM); NO Inhibition (%) ([9]; sample concentration 100 µg/mL): 33.32 ± 0.11%; NO Inhibition (%) ([9]; sample concentration 200 µg/mL): 59.30 ± 0.20%; IC50 against α-amylase (α-amylase [1]): 3.56 ± 0.02 µg/mL (≈ 5.47 µM); IC50 against α-glucosidase (α-glucosidase [2]): 2.42 ± 0.02 µg/mL (≈ 3.72 µM); Diff% (physiological difference) of electrophoretic α-amylase pattern from the standard enzyme (α-amylase [3]): 100.00%; SI% (similarity index) of electrophoretic α-amylase pattern to the standard enzyme (α-amylase [3]): 0.00%; Diff% (decrease in the quantity of the identified α-glucosidase band) (α-glucosidase [4]): 69.27%; Qty (band quantity) of the α-glucosidase band (α-glucosidase [4]): 5.73
